Reference: patent EP0663912B1, “HETEROCYCLIC ETHER COMPOUNDS THAT ENHANCE COGNITIVE FUNCTION” (ABBOTT LABORATORIES, priority 1992, dated 1994)
pEC50: −log10 of the molar value. Values joined by “and” are separate entries in the source; they are usually repeats but may differ in a detail not shown here. Equal entries are not always repeated. Structures can show the parent of a compound that is named as a salt.

Legend:
[1] = system: cholinergic channel receptors in PC12 cells; assay: Whole-cell patch-clamp measurement of cholinergic channel activation in NGF-differentiated PC12 cells; format: cell-based, rat; details: for CURRENT AT PEAK: holding potential -60 mV
Text: B. Protocols for the Determination of Cholinergic Channel Activation in PC12 Cells.
The cholinergic channel activator properties of Example 9 were investigated in PC12 cells using the whole-cell patch-clamp approach to measure current flow through ligand-gated membrane channels. […]
PC12 cells are a rat pheochromocytoma cell line that, upon treatment with nerve growth factor (NGF) differentiate into a neuronal phenotype and express nicotinic cholinergic channels (Greene & Tischier, Proceedings of the National Academy of Sciences of the United States of America, 73: 2424-2428, 1976; Dichter et al., Nature, 268: 501-504, 1977). Prominent neuronal cholinergic channel subunits in these cells are α3, α5, β2, β3 and β4 (Rogers et al., Journal of Neuroscience, 12: 4611-4623, 1992).
PC12 cells were obtained initially from ATCC and, using standard techniques were maintained in DMEM containing 10% heat-inactivated fetal calf serum and 5% heat-inactivated horse serum (37°C, 95% 02 & 5% CO2). Electrophysiologic recordings were obtained from differentiated (neurite-bearing) cells after 4-7 days exposure to NGF. For this purpose, the undifferentiated cells were first plated onto polylysine-coated 12 mm round glass coverslips in 60x15 mm plastic Petri dishes. After 20 minutes, differentiating medium was added (DMEM containing 100 ng/ml nerve growth factor, 5% heat-inactivated fetal calf serum and 2.5% heat-inactivated horse serum) and the cells were refed with this medium every 3 days.
The whole-cell patch-clamp technique was used to record voltage-activated currents and ligand-gated currents activated by substances applied through the U-tube flow-reversal technique (Fenwick et al., The Journal of Physiology (London) 331: 577-597, 1982). A coverslip bearing the cells was transferred from culture dish to the recording chamber (350 µL volume) and superfused (1 ml/min) at room temperature with an extracellular solution containing 150 mM NaCl, 2.8 mM KCI, 2.0 mM CaCl2, 1.0 mM MgCl2, ≥ 10 mM dextrose and 10 mM Na-HEPES buffer (7.3 pH, 325 mOsm). The intracellular (recording pipette) solution consisted of 140 mM KCl, 1.0 mM CaCl2, 2.0 mM MgCl2, 11 mM K-EGTA, and 10 mM K-HEPES buffer (7.3 pH, 315 mOsm). Osmolarities were adjusted using dextrose such that the extracellular solution was 10 mOsm hypertonic compared to the intracellular solution. Voltage-gated inward (sodium) and outward (potassium) currents were monitored throughout the experiment to determine establishment and maintenance of the whole-cell recording configuration.
The ligand was applied at least twice at each concentration in every cell, and applications were separated by ≥ 3 minutes to allow for recovery from desensitization, washout of the bathing solution, and re-equilibration of the U-tube. Antagonists were applied to the bathing solution through superfusion for 5-10 minutes prior to application of both antagonist and agonist through the U-tube flow reversal.

[2] = Inhibitory (passive) avoidance (IA) test of learning/memory; format: in vivo
Text: The inhibitory (or sometimes called passive) avoidance (IA) test is a well accepted animal model of learning/memory used to assess the activity of novel cholinergic agonists to enhance cognitive function (Wanibuchi et al., Eur. J. Pharmacol., 1990, 187:479). Animals are placed in the illuminated (12 X 14 X 11 cm) portion of a two-chambered box, from which they enter through a guillotine door to the larger (24 X 13.5 X 12 cm) dark compartment of the box. Entry to the dark compartment is accompanied by a mild (0.5 mA), brief (2 seconds) footshock. Initial latencies to cross are recorded, with an imposed 60 second ceiling. Following a 72 hour retention interval, animals are returned to the illuminated chamber, and latency to return to the dark compartment is again recorded, with a ceiling of 180 seconds. No footshock is administered on the test day.
Twelve animals were used in each group.

[3] = system: CD1 mice; assay: Mouse elevated plus-maze (EPM) test of anxiolytic activity; format: in vivo
Text: The mouse elevated plus-maze is a conflict test that probes anxiolytic activity of test compounds (Lister, Psychopharmacology, 1987, 92:180). It is based on the fact that exposure of mice to an elevated open arm leads to an avoidance response considerably stronger than that evoked by exposure to an enclosed arm.
The apparatus required to perform this test is made of plywood and consists of two open arms (17 X 8 cm) and two enclosed arms (17 X 8 X 15 cm) extending from a central platform (8 X 8 cm). It is mounted on a plywood base rising 39 cm above the floor. Mice are released on the central platform and the time spent in the open and enclosed arms is recorded during a 5 minute test period. The test compounds were administered to CD1 mice 15 minutes before the test. […]

[4] = level of improvement in retention of the avoidance response, dose or dose range in brackets, IP 15 minutes before training, 12 animals per group
[5] = level of increase in time spent in the open arms, dose or dose range in brackets, given 15 minutes before 5 minute test

CN1CCCC1c1cccnc1 (single isomer, unassigned; (-)) [(-)-nicotine, reference compound]
CURRENT AT PEAK ([1]; 50 µM (-)-nicotine, individual PC12 cells A-E): 81 pA and 108 pA and 163 pA and 539 pA
CURRENT AT PEAK, MEAN±S.E.M. ([1]; 50 µM (-)-nicotine, n=5 PC12 cells): 235 ± 84 pA
pEC50 ([1]; PC12 cells current response): 4.28
IA ([2]; in vivo, ip): significant [0.19-0.62]
EPM ([3]; mouse, in vivo): significant [0.62-1.9]
time spent by the mice in the open arms of the maze ([3]; mouse, in vivo): significant increase

CN1CCC[C@H]1COc1cnccn1.O=C(O)/C=C/C(=O)O [Example 3, 2-(1-Methyl-2-(S)-pyrrolidinylmethyloxy)pyrazine fumarate]
IA [2, 4]: NE [0.062-1.9]
EPM [3, 5]: NE [0.019-0.62]

CN1CCC[C@H]1COc1cccnc1.O=C(O)/C=C/C(=O)O [Example 4, 3-(1-Methyl-2-(S)-pyrrolidinylmethyloxy)pyridine fumarate]
IA [2, 4]: significant [0.019]
EPM [3, 5]: NE [0.019-0.62]

Cl.c1cnc(OC[C@@H]2CCN2)cn1 [Example 7, 2-(2-(S)-azetidinylmethyloxy)pyrazine hydrochloride]
IA [2, 4]: marginal
EPM [3, 5]: NE [0.019-0.62]

CN1CC[C@H]1COc1cnccn1.Cl [Example 8, 2-(1-Methyl-2-(S)-azetidinylmethyloxy)pyrazine hydrochloride]
IA [2, 4]: NE [0.062- 1.9]
EPM [3, 5]: NE [0.062- 1.9]

Cl.c1cncc(OC[C@@H]2CCN2)c1 [Example 9, 3-(2-(S)-azetidinylmethyloxy)pyridine hydrochloride]
CURRENT AT PEAK ([1]; 10 µM Example 9, individual PC12 cells A-E, hydrochloride): 165 pA and 173 pA and 484 pA and 283 pA and 702 pA
CURRENT AT PEAK, MEAN±S.E.M. ([1]; 10 µM Example 9, n=5 PC12 cells): 361 ±103 pA
RESPONSE RATIO Example 9 /(-)-NICOTINE ([1]; 10 µM Example 9 versus 50 µM (-)-nicotine in the same cell, individual PC12 cells A-E, hydrochloride, 10 µM): 203% and 161% and 171% and 173% and 130%
RESPONSE RATIO Example 9 /(-)-NICOTINE, MEAN±S.E.M. ([1]; 10 µM Example 9 versus 50 µM (-)-nicotine in the same cell, n=5): 168 ± 12%
IA [2, 4]: NE [0.0019- 0.062]
EPM [3, 5]: significant [0.0062]

CN1CC[C@H]1COc1cccnc1.Cl [Example 10, 3-(1-Methyl-2-(S)-azetidinylmethyloxy)pyridine hydrochloride]
IA [2, 4]: marginal [0.62]
EPM [3, 5]: significant [0.19]

c1cncc(OC[C@@H]2CCCN2)c1 [Example 14, 3-(2-(S)-pyrrolidinylmethyloxy)pyridine furmarate]
IA [2, 4]: NE [0.019- 0.62]
EPM [3, 5]: marginal [0.019]

Cl.Cl.Clc1cncc(OC[C@@H]2CCCN2)c1 [Example 15, 5-Chloro-3-(2-(S)-pyrrolidinylmethyloxy)pyridine dihydrochloride]
IA [2, 4]: significantly inhibits [0.062]
EPM [3, 5]: significant [0.062- 0.19]

CN1CCC[C@H]1COc1cncc(Cl)c1.Cl.Cl [Example 16, 5-Chloro-3-(1-methyl-2-(S)-pyrrolidinylmethyloxy)pyridine dihydrochloride]
IA [2, 4]: significant [0.019]
EPM [3, 5]: NE [0.019- 0.62]

Cc1ncccc1OC[C@@H]1CCCN1.Cl.Cl [Example 17, 2-Methyl-3-(2-(S)-pyrrolidinylmethyloxy)pyridine dihydrochloride]
IA [2, 4]: significant [0.062, 0.62, 1.9]
EPM [3, 5]: significant [1.9]

Cc1ccc(OC[C@@H]2CCCN2)cn1.Cl.Cl [Example 18, 6-Methyl-3-(2-(S)-pyrrolidinylmethyloxy)pyridine dihydrochloride]
IA [2, 4]: NE [0.019- 0.62]
EPM [3, 5]: significant [0.062- 0.19]

Cc1ccc(OC[C@@H]2CCCN2C)cn1.Cl.Cl [Example 19, 6-Methyl-3-(1-methyl-2-(S)-pyrrolidinylmethyloxy)pyridine dihydrochloride]
IA [2, 4]: NE [0.019- 0.62]
EPM [3, 5]: NE [0.019-62]

CC1CC[C@@H](COc2cccnc2)N1C.Cl.Cl (stereo partly drawn) [Example 22, 3-(1-Methyl-5-methyl-2-(S)-pyrrolidinylmethyloxy)pyridine dihydrochloride]
IA [2, 4]: NE [0.062- 1.9]
EPM [3, 5]: NE [0.062-1.9]

Cc1ncccc1OC[C@@H]1CCN1.Cl.Cl [Example 29, 2-Methyl-3-(2-(S)-azetidinylmethyloxy)pyridine dihydrochloride]
IA [2, 4]: significantly Inhibits [19]
EPM [3, 5]: significant [0.62, 1.9]

c1csc(OCC23CCCN2CCC3)n1 [Example 34, 2-(1-(8-pyrrolizidinyl)methyloxy)thiazole hydrochloride salt]
IA [2, 4]: NE [0.062-1.9]
EPM [3, 5]: marginal [0.62]

CNC1(C)C2CCC(C2)C1(C)C (centres unmarked) [Mecamylamine, reference compound]
inhibition of the responses to Example 9 ([1]; Mecamylamine 10 µM against Example 9 10 µM, n=4): ≥ 80%
